Experiment [1] addresses T1, human TLR7 (Homo sapiens, UniProt Q9NYK1).
T1 construct: host or cells: HEK-Blue TLR7 cells (engineered human embryonic kidney cells)
T1 sequence (Q9NYK1 27-1049): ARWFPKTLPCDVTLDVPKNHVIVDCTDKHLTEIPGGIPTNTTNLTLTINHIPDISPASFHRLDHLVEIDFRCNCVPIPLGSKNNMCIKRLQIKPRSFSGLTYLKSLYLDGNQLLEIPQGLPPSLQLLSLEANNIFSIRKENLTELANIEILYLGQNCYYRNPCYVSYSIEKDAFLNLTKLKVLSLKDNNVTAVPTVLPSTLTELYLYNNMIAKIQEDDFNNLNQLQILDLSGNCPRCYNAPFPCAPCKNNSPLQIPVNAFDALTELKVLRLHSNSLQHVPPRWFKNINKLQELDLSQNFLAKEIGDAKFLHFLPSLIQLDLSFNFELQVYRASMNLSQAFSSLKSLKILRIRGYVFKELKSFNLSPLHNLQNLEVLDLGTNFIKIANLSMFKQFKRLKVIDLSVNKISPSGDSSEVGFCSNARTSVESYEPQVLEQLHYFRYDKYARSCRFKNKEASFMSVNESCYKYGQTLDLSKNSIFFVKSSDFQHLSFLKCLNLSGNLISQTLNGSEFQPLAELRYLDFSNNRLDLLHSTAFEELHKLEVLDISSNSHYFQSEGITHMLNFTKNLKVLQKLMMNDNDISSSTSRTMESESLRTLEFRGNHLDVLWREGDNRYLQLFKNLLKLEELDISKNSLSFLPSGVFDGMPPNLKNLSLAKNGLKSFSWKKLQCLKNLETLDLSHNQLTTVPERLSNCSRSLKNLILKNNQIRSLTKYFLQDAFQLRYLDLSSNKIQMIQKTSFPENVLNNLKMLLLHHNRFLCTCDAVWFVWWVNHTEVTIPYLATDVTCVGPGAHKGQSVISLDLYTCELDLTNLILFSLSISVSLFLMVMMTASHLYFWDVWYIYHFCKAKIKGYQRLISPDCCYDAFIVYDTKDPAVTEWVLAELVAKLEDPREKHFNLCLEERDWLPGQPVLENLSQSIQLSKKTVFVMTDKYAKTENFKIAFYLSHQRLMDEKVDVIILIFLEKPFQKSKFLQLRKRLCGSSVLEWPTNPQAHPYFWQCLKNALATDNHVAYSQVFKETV
The experiment is described as follows: Human TLR7 agonist activity reporter assay (HEK-Blue TLR7 cells, SEAP reporter). It is filed as cell-based. To be noted: 18 h treatment, average where assay repeated, Table A1, read-out: hTLR7 Agonism EC50. Summed up:
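HEK-Blue TLR7 cells (15,000/well) treated with compound for 18 h at 37 °C, 5% CO2. Secreted SEAP measured with Quanti-Blue, 30 min, OD 620 nm. EC50 taken as concentration giving half-maximal response between baseline and maximum.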
In general terms: A reporter such as luciferase makes a cellular process visible.

For experiment [2], the system named is CD69. Nature of the experiment: Induction of CD69 in human whole blood. The class given is cell-based. To be noted: 17 h, CD69 surface staining, 100% set to 1 uM resiquimod, average where assay repeated, Table A1, read-out: hWB CD69 EC50. Summed up:
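Heparinized human whole blood, RPMI-diluted, incubated with TLR7 agonist (final 1 uM from 1 mM stock) for 17 h at 37 °C. CD69-PE surface staining with CD14/CD19 gating, fix/lysis, then flow cytometry; curves normalized with 1 uM resiquimod as 100%.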

This is an account of results in patent publication US20230118688A1, “1H-PYRAZOLO[4,3-d]PYRIMIDINE COMPOUNDS AS TOLL-LIKE RECEPTOR 7 (TLR7) AGONISTS” (BRISTOL-MYERS SQUIBB COMPANY, priority 2020, published 2023).

Broadly, the EC50 is the concentration at which the effect is half-maximal. For the compound `CCC[C@@H](CCO)Nc1nc(N)nc2cnn(Cc3cc(CN4CC5(CN(C)C5)C4)ccc3OC)c12` [Compound 158, (3S)-3-[(5-amino-1-{[2-methoxy-5-({6-methyl-2,6-diazaspiro[3.3]heptan-2-yl}methyl)phenyl]methyl}-1H-pyrazolo[4,3-d]pyrimidin-7-yl)amino]-hexan-1-ol], the EC50 in experiment [1] is 604 nM; in experiment [2], 199 nM.
